In ChEMBL document CHEMBL1201862, “PubChem BioAssay data set” (2004):
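Values below derive from 48-hour exposures of cells grown in 96-well plates, with endpoints linearly interpolated between the two concentrations bracketing the appropriate inhibition level. At the GI50, growth is halved.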 Activity calls are given as the source filed them. No stated cut-off is given here; in the data, active = GI50 up to about 1.1 µM and inactive = higher.

Key:
Assay in all cases: inhibition of tumour cell growth, NCI panel, 48 h
A549 = test system: A549
ACHN = test system: ACHN
CCRF-CEM = test system: CCRF-CEM
COLO 205 = test system: COLO 205
HL-60 = test system: HL-60
KM12 = test system: KM12
LOX IMVI = test system: LOX IMVI
MOLT-4 = test system: MOLT-4
NCI-H226 = test system: NCI-H226
NCI-H23 = test system: NCI-H23
NCI-H522 = test system: NCI-H522
SK-MEL-28 = test system: SK-MEL-28
SK-MEL-2 = test system: SK-MEL-2
SK-MEL-5 = test system: SK-MEL-5
SN12C = test system: SN12C
SNB-75 = test system: SNB-75
U-251 = test system: U-251
UACC-257 = test system: UACC-257
MCF7 = test system: MCF7

Measured: GI50

CCC(Oc1ccc(OC)c2ccccc(=O)c12)C(=O)O (configuration not stated)
inactive: A549 > 100 µM | ACHN > 100 µM | CCRF-CEM > 100 µM | COLO 205 > 100 µM | HL-60 > 100 µM | KM12 > 100 µM | LOX IMVI > 100 µM | MOLT-4 > 100 µM | NCI-H226 > 100 µM | NCI-H23 > 100 µM | NCI-H522 > 100 µM | SK-MEL-28 > 100 µM | SK-MEL-2 > 100 µM | SK-MEL-5 > 100 µM | SN12C > 100 µM | SNB-75 > 100 µM | U-251 > 100 µM | UACC-257 > 100 µM

c1ccc2c(c1)[Se]c1ccccc1[Se]2
inactive: A549 53.6 µM | ACHN > 100 µM | CCRF-CEM 57.8 µM | COLO 205 > 100 µM | HL-60 27.1 µM | KM12 > 100 µM | LOX IMVI > 100 µM | MOLT-4 77.6 µM | NCI-H226 44.1 µM | NCI-H23 63.5 µM | NCI-H522 > 100 µM | SK-MEL-28 > 100 µM | SK-MEL-2 > 100 µM | SK-MEL-5 > 100 µM | SN12C > 100 µM | SNB-75 21.2 µM | U-251 37.5 µM | UACC-257 > 100 µM

O=C1Nc2ccccc2C1(O)C/C(=N/O)c1ccc2ccccc2c1 (configuration not stated)
inactive: A549 > 100 µM | ACHN > 100 µM | CCRF-CEM 47.2 µM | COLO 205 > 100 µM | HL-60 41.8 µM | KM12 > 100 µM | LOX IMVI 22.3 µM | MOLT-4 64.9 µM | NCI-H226 > 100 µM | NCI-H23 71.9 µM | NCI-H522 > 100 µM | SK-MEL-28 > 100 µM | SK-MEL-2 > 100 µM | SN12C > 100 µM | SNB-75 28.6 µM | U-251 86.5 µM | UACC-257 > 100 µM

CC(C)c1cc2c(O)c(c1)Cc1cc(C(C)C)cc(c1O)Cc1cc(C(C)C)cc(c1O)Cc1cc(C(C)C)cc(c1O)C2
inactive: A549 > 100 µM | CCRF-CEM > 100 µM | COLO 205 > 100 µM | HL-60 > 100 µM | KM12 > 100 µM | LOX IMVI > 100 µM | MOLT-4 > 100 µM | NCI-H226 > 100 µM | NCI-H23 > 100 µM | NCI-H522 > 100 µM | SK-MEL-2 > 100 µM | SK-MEL-5 > 100 µM | SNB-75 > 100 µM | U-251 > 100 µM | UACC-257 > 100 µM

COc1cccc(SSc2cccc(OC)c2C(=O)O)c1C(=O)O
inactive: A549 > 100 µM | ACHN > 100 µM | CCRF-CEM > 100 µM | COLO 205 > 100 µM | HL-60 > 100 µM | KM12 > 100 µM | LOX IMVI > 100 µM | MOLT-4 > 100 µM | NCI-H226 > 100 µM | NCI-H23 > 100 µM | NCI-H522 > 100 µM | SK-MEL-28 > 100 µM | SK-MEL-2 > 100 µM | SK-MEL-5 > 100 µM | SN12C > 100 µM | SNB-75 > 100 µM | U-251 > 100 µM | UACC-257 > 100 µM

COc1ccc(OCC(=O)O)c(C(=O)CCC(=O)O)c1
inactive: A549 > 100 µM | ACHN > 100 µM | CCRF-CEM > 100 µM | COLO 205 > 100 µM | HL-60 > 100 µM | KM12 > 100 µM | LOX IMVI > 100 µM | MOLT-4 > 100 µM | NCI-H226 83.8 µM | NCI-H23 > 100 µM | NCI-H522 > 100 µM | SK-MEL-28 > 100 µM | SK-MEL-2 > 100 µM | SK-MEL-5 > 100 µM | SN12C > 100 µM | SNB-75 71.8 µM | U-251 > 100 µM | UACC-257 > 100 µM

Cc1ccc(C(=O)/C=C/c2ccccc2O)c(C)c1
inactive: A549 > 100 µM | ACHN > 100 µM | CCRF-CEM 30.1 µM | COLO 205 > 100 µM | HL-60 > 100 µM | KM12 > 100 µM | LOX IMVI > 100 µM | MOLT-4 94.8 µM | NCI-H226 > 100 µM | NCI-H23 > 100 µM | NCI-H522 > 100 µM | SK-MEL-28 > 100 µM | SK-MEL-2 > 100 µM | SK-MEL-5 > 100 µM | SN12C > 100 µM | SNB-75 1.24 µM | U-251 > 100 µM | UACC-257 > 100 µM

Clc1ccccc1C(SCc1ccccc1)SCc1ccccc1
inactive: A549 > 100 µM | ACHN > 100 µM | CCRF-CEM > 100 µM | COLO 205 > 100 µM | HL-60 64.7 µM | KM12 93.8 µM | MCF7 > 100 µM | MOLT-4 > 100 µM | NCI-H226 > 100 µM | NCI-H23 > 100 µM | NCI-H522 > 100 µM | SK-MEL-28 > 100 µM | SK-MEL-2 > 100 µM | SK-MEL-5 > 100 µM | SN12C > 100 µM | SNB-75 41.8 µM | U-251 > 100 µM | UACC-257 > 100 µM

O=C(CC(=O)n1nc(-c2ccccc2)c(/N=N/c2ccc(Cl)cc2)c1-c1ccccc1)Nc1cccc(Cl)c1
inactive: A549 > 100 µM | ACHN 63.8 µM | CCRF-CEM 38.9 µM | COLO 205 > 100 µM | HL-60 28.5 µM | KM12 > 100 µM | MCF7 > 10 µM | MOLT-4 35.9 µM | NCI-H226 28.3 µM | NCI-H23 > 100 µM | SK-MEL-28 > 100 µM | SK-MEL-2 > 100 µM | SK-MEL-5 > 100 µM | SN12C 60.5 µM | SNB-75 43.3 µM | U-251 40.9 µM | UACC-257 > 100 µM

COC(=O)C(=O)C(C(=O)OC)C(=O)C(=O)Nc1c(C)cccc1C (configuration not stated)
inactive: A549 > 100 µM | ACHN > 100 µM | CCRF-CEM 48.2 µM | COLO 205 > 100 µM | HL-60 > 100 µM | KM12 > 100 µM | LOX IMVI > 100 µM | MOLT-4 > 100 µM | NCI-H226 > 100 µM | NCI-H23 > 100 µM | NCI-H522 97.5 µM | SK-MEL-28 > 100 µM | SK-MEL-2 > 100 µM | SK-MEL-5 > 100 µM | SN12C > 100 µM | SNB-75 > 100 µM | U-251 > 100 µM | UACC-257 > 100 µM

Cc1cc(NC(=O)C2C3C=CC(O3)C2C(=O)O)no1 (configuration not stated)
inactive: A549 34.8 µM | ACHN 39.7 µM | CCRF-CEM 19.1 µM | COLO 205 17.7 µM | HL-60 23.5 µM | LOX IMVI 14.3 µM | MOLT-4 32.6 µM | NCI-H226 > 100 µM | NCI-H23 > 100 µM | NCI-H522 > 100 µM | SK-MEL-28 97.7 µM | SK-MEL-2 > 100 µM | SK-MEL-5 > 100 µM | SN12C 37.6 µM | SNB-75 > 100 µM | U-251 21.3 µM | UACC-257 35 µM
